Test results reported in US20220168427A1 (Ranok Therapeutics (Hangzhou) Co. Ltd., priority 2019, published 2022).

Legend:
HSP90α = HSP90α (Homo sapiens, UniProt P07900); experiment: HSP90α Binding Fluorescent Polarization (FP) Assay; conditions: competition with FITC-geldanamycin; read-out: HSP90 Binding Potency
Outline: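 Competitive FP assay in which compound displaces FITC-geldanamycin from recombinant HSP90α (28 μg/ml before addition) in BSA-containing buffer. Compounds in 3-fold series from 40 μM to 2.0 nM (dilution-plate concentrations), tested in duplicate. Readings after 30, 60 and 120 min at 25 °C; background-subtracted mP fitted to four-parameter log[inhibitor]-response curve.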

BRD4 = target: T1, BRD4 (Homo sapiens, UniProt O60885); experiment: BRD4 Degradation Flow Cytometry Assay in MV4-11 cells; type: cell-based; conditions: 24 hr
T1 construct: endogenous in cells; host or cells: MV4-11
Description: Protein Degradation Flow Cytometry
MV4-11 cells were plated in a 24-well tissue culture plate at a density of 350,000 cells/450 μL/well and incubated in 37° C./5% CO2 for 1 hr. Cells were then treated with compounds at various concentrations and incubated in 37° C./5% CO2 for 24 hr. Cells were harvested, washed once, counted and 200 μL of 1% paraformaldehyde/PBS was added and incubated for 15 min at room temperature. 200 μL of 1×PBS/0.4% Triton X-100 was added and incubated for 15 min at 4° C. Cells were washed three times and resuspended in 50 μL of 1×PBS/0.2% Triton X-100. 2 μL/10^6 cells of anti-BRD4 antibody (ABCAM, #128874) was added and mixed by pipetting up and down. Cells were incubated for 30 min at room temperature in the dark, washed three times and resuspended in 50 μL of 1×PBS/0.2% Triton X-100. Goat anti-rabbit IgG H&L antibody (1:2000 dilution) was added and mixed by pipetting up and down and incubated for 30 min at room temperature in the dark. Finally, cells were washed three times and resuspended in 200 μL of PBS for flow cytometric analysis.
(§1) % Inhibition=100−(D−B)/(S−B)*100%.
S: The fluorescence intensity of MV4-11 with antibody
D: The fluorescence intensity in the presence of different compound dilutions with antibody
B: The fluorescence intensity of MV4-11 only

BRD4 (BD1+BD2) = target: T2, BRD4 (BD1+BD2) (Homo sapiens, UniProt O60885); conditions: read-out: BRD4 Binding Potency
T2 construct: 1.8 μg/ml recombinant BRD4 (BD1+BD2 domains) protein

MV4-11 cells = experiment: MV4-11 Cell Cytotoxicity Assay; type: cell-based, human; conditions: human, MV4-11 cells, CCK-8
Excerpt: as §1
S: The absorbance of the maximum (cells with DMSO)
B: The absorbance of the minimum (medium with DMSO)

SU-DHL-4 xenograft = experiment: SU-DHL-4 DLBCL tumor xenograft study in mice
Description: (§2) Tumor Xenograft Studies in Mice
(§3) 5×10^6 MV-4-11 or 1×10^7 SU-DHL-4 cells were collected and re-suspended in 0.1 mL of serum-free media with Matrigel (1:1 v/v) per mouse for subcutaneous inoculation in isoflurane anesthetized male BALB/c nude or C.B-17 scid mice, respectively (treated in accordance with AAALAC animal welfare guidelines). When the average tumor volumes reached 100-200 mm^3, tumor volume outliers were removed and the remaining animals randomly divided into groups of 6-8 with similar average tumor volumes in each group. […] Animals were intravenously dosed at 25 mg/kg, 50 mg/kg or 100 mg/kg 1×/week for 3 or 4 weeks. The appearance and behavior of each mouse was observed and recorded daily. Body weights and tumor volumes were measured and recorded every 2-4 days and the results were expressed as group means±SEM. Pairwise statistical comparisons between groups were performed by one-way ANOVA, and p<0.05 was considered statistically significant.

MV4-11 xenograft = experiment: MV4-11 AML tumor xenograft study in mice
Description: as §2
as §3, with “MV4-11 acute myeloid leukemia and SU-DHL-4 diffuse large B-cell lymphoma (ATCC, #CRL-2957) cells were cultured in medium supplemented with 10% fetal bovine serum at 37° C./5% CO2. 5×10^6” for “5×10^6”, “Animals were intravenously dosed at 25 mg/kg, 50 mg/kg or 100 mg/kg 1×/week for 3 or 4 weeks.” left out

[1] = 100 mg/kg intravenously 1×/week, after 4 weeks of dosing

Row | Compound | IC50 (HSP90α) [nM] | IC50 (BRD4 (BD1+BD2)) [nM] | IC50 at 72 h (MV4-11 cells) [nM] | BRD4 degradation in flow cytometry assay, in words (BRD4) | also measured
1 | Cc1sc2c(c1C)C(c1ccc(Cl)cc1)=N[C@@H](CC(=O)NCC(=O)NCC1CCN(C(=O)C3CCN(Cc4ccc(-n5c(O)nnc5-c5cc(C(C)C)c(O)cc5O)cc4)CC3)C1)c1nnc(C)n1-2 (stereo partly drawn) [Compound 47, 2-((S)-4-(4-chlorophenyl)-2,3,9-trimethyl-6H-thieno[3,2-f][1,2,4]triazolo[4,3-a][1,4]diazepin-6-yl)-N-(2-(((1-(1-(4-(3-(2,4-dihydroxy-5-isopropylphenyl)-5-hydroxy-4H-1,2,4-triazol-4-yl)benzyl)piperidine-4-carbonyl)pyrrolidin-3-yl)methyl)amino)-2-oxoethyl)acetamide, trifluoroacetic acid] | < 100 | < 100 | < 100 | – | degradation of BRD2, BRD3 and BRD4, in words (BRD4; flow cytometry): only induced significant degradation of BRD4
2 | Cc1sc2c(c1C)C(c1ccc(Cl)cc1)=N[C@H](CC(=O)N1CCC(CN3CCN(Cc4ccc(-n5c(O)nnc5-c5cc(C(C)C)c(O)cc5O)cc4)CC3)CC1)c1nnc(C)n1-2 [Compound 5, 2-((6R)-4-(4-chlorophenyl)-2,3,9-trimethyl-6H-thieno[3,2-f][1,2,4]triazolo[4,3-a][1,4]diazepin-6-yl)-1-(4-((4-(4-(3-(2,4-dihydroxy-5-isopropylphenyl)-5-hydroxy-4H-1,2,4-triazol-4-yl)benzyl)piperazin-1-yl)methyl)piperidin-1-yl)ethanone, trifluoroacetic acid] | 100 to 1000 | > 1000 | – | does not degrade BRD4 | –
3 | CCc1cc(-c2nnc(C(=O)NCC(F)(F)F)n2-c2ccc(CN3CCN(CC4CCN(C(=O)C[C@@H]5N=C(c6ccc(Cl)cc6)c6c(sc(C)c6C)-n6c(C)nnc65)CC4)CC3)cc2)c(O)cc1O.Cl [Compound 78, 4-(4-((4-((1-(2-((6S)-4-(4-chlorophenyl)-2,3,9-trimethyl-6H-thieno[3,2-f][1,2,4]triazolo[4,3-a][1,4]diazepin-6-yl)acetyl)piperidin-4-yl)methyl)piperazin-1-yl)methyl)phenyl)-5-(5-ethyl-2,4-dihydroxyphenyl)-N-(2,2,2-trifluoroethyl)-4H-1,2,4-triazole-3-carboxamide hydrochloride] | 100 to 1000 | 100 to 1000 | – | – | tumor growth inhibition (SU-DHL-4 xenograft; [1]): significant tumor growth inhibition; tumor vs control (T/C) value (SU-DHL-4 xenograft; [1]): 28%; animal deaths and body weights (SU-DHL-4 xenograft; any dose level): No animal deaths or significant effects on body weights were observed
4 | CC(=O)N1CCC(CN2CCN(Cc3ccc(-n4c(O)nnc4-c4cc(C(C)C)c(O)cc4O)cc3)CC2)CC1 [HSP90 binder, 1-(4-((4-(4-(3-(2,4-dihydroxy-5-isopropylphenyl)-5-hydroxy-4H-1,2,4-triazol-4-yl)benzyl)piperazin-1-yl)methyl)piperidin-1-yl)ethan-1-one, reference compound] | – | – | – | no substantial BRD4 degradation was observed | –
5 | (+)-JQ1 [reference compound] | – | – | – | no substantial BRD4 degradation was observed | tumor growth inhibition (MV4-11 xenograft; 25 mg/kg intraperitoneal dosing 1×/day): moderate tumor growth inhibition; animal deaths and body weights (MV4-11 xenograft; any group): No animal deaths or significant effects on body weights were observed
6 | Cc1sc2c(c1C)C(c1ccc(Cl)cc1)=N[C@@H](CC(=O)NCc1ccc(CN3CCC(Cc4ccc(-n5c(O)nnc5-c5cc(C(C)C)c(O)cc5O)cc4)CC3)cc1)c1nnc(C)n1-2 [Compound 89, (S)-2-(4-(4-chlorophenyl)-2,3,9-trimethyl-6H-thieno[3,2-f][1,2,4]triazolo[4,3-a][1,4]diazepin-6-yl)-N-(4-((4-(4-(3-(2,4-dihydroxy-5-isopropylphenyl)-5-hydroxy-4H-1,2,4-triazol-4-yl)benzyl)piperidin-1-yl)methyl)benzyl)acetamide, trifluoroacetic acid] | 100 to 1000 | 100 to 1000 | < 100 | – | –
